Laboratory results taken from the supplement of paper PMC10307832.

Columns and labels:
Experiment in all cases: relative viability (nuclei count vs DMSO), 5 days (fraction); higher = more cells survive
DM3189 + Decitabine = compound: C1CN(CCN1)C2=CC=C(C=C2)C3=CN4C(=C(C=N4)C5=CC=NC6=CC=CC=C56)N=C3 [DM3189] + Nc1ncn([C@H]2C[C@H](O)[C@@H](CO)O2)c(=O)n1 [Decitabine] (partner 2 µM)
Outline: (§1)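 Relative viability equals treated-well nuclei counts divided by vehicle-well nuclei counts. Counts came from 4× images of lung cancer cell lines grown in 1536-well plates for 5 days after pin-tool dosing on the day after seeding. Dosing used one drug alone or a fixed anchor-drug dose plus five library-drug doses (not always all listed) in √10 steps, and values are medians of duplicate plates.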

DM3189 + Linsitinib = compound: C1CN(CCN1)C2=CC=C(C=C2)C3=CN4C(=C(C=N4)C5=CC=NC6=CC=CC=C56)N=C3 [DM3189] + C[C@]1(O)C[C@@H](c2nc(-c3ccc4ccc(-c5ccccc5)nc4c3)c3c(N)nccn32)C1 [Linsitinib] (partner 1 µM)
Outline: as §1

DM3189 + AZD7762 = compound: C1CN(CCN1)C2=CC=C(C=C2)C3=CN4C(=C(C=N4)C5=CC=NC6=CC=CC=C56)N=C3 [DM3189] + NC(=O)Nc1cc(-c2cccc(F)c2)sc1C(=O)N[C@H]1CCCNC1 [AZD7762] (partner 0.2 µM)
Outline: as §1

DM3189 + Phenformin = compound: C1CN(CCN1)C2=CC=C(C=C2)C3=CN4C(=C(C=N4)C5=CC=NC6=CC=CC=C56)N=C3 [DM3189] + N=C(N)NC(=N)NCCc1ccccc1 [Phenformin] (partner 250 µM)
Outline: as §1

DM3189 + Bortezomib = compound: C1CN(CCN1)C2=CC=C(C=C2)C3=CN4C(=C(C=N4)C5=CC=NC6=CC=CC=C56)N=C3 [DM3189] + CC(C)C[C@H](NC(=O)[C@H](Cc1ccccc1)NC(=O)c1cnccn1)B(O)O [Bortezomib] (partner 0.002 µM)
Outline: as §1

Cell Line	relative viability (DM3189 + Decitabine; first compound 0.08 µM)	relative viability (DM3189 + Decitabine; first compound 0.253 µM)	relative viability (DM3189 + Decitabine; first compound 0.8 µM)	relative viability (DM3189 + Decitabine; first compound 2.53 µM)	relative viability (DM3189 + Linsitinib; first compound 0.08 µM)	relative viability (DM3189 + Linsitinib; first compound 0.253 µM)	relative viability (DM3189 + Linsitinib; first compound 0.8 µM)	relative viability (DM3189 + Linsitinib; first compound 2.53 µM)	relative viability (DM3189 + AZD7762; first compound 0.08 µM)	relative viability (DM3189 + AZD7762; first compound 0.253 µM)	relative viability (DM3189 + AZD7762; first compound 0.8 µM)	relative viability (DM3189 + AZD7762; first compound 2.53 µM)	relative viability (DM3189 + Phenformin; first compound 0.08 µM)	relative viability (DM3189 + Phenformin; first compound 0.253 µM)	relative viability (DM3189 + Phenformin; first compound 0.8 µM)	relative viability (DM3189 + Phenformin; first compound 2.53 µM)	relative viability (DM3189 + Bortezomib; first compound 0.08 µM)	relative viability (DM3189 + Bortezomib; first compound 0.253 µM)	relative viability (DM3189 + Bortezomib; first compound 0.8 µM)	relative viability (DM3189 + Bortezomib; first compound 2.53 µM)
NCI-H1355	0.337	0.39	0.345	0.37	0.785	0.793	0.663	0.738	0.687	0.813	0.585	0.648	0.438	0.43	0.405	0.394	1.21	1.22	0.992	1.17
NCI-H1437	0.6	0.542	0.554	0.571	1.05	1.06	0.966	0.893	1.14	1.15	0.969	1	0.363	0.325	0.308	0.323	0.601	0.442	0.543	0.628
NCI-H1651	0.703	0.646	0.626	0.67	1.09	1.02	1.21	0.991	0.536	0.457	0.443	0.444	0.45	0.339	0.335	0.272	1.04	0.984	0.908	0.971
NCI-H1666	0.882	0.688	0.748	0.83	0.861	0.808	0.842	1.04	1.11	0.812	0.878	0.941	0.629	0.545	0.549	0.592	0.853	0.783	0.898	0.91
NCI-H1734	0.528	0.506	0.49	0.524	1.01	0.981	0.814	0.968	0.6	0.573	0.511	0.383	0.344	0.381	0.37	0.332	1.02	0.982	0.778	0.775
NCI-H1755	0.739	0.694	0.729	0.671	1.02	0.911	0.881	0.934	0.482	0.455	0.615	0.372	0.698	0.589	0.511	0.566	0.95	0.878	0.807	0.505
NCI-H1792	0.529	0.519	0.397	0.579	0.409	0.532	0.449	0.315	0.796	0.65	0.593	0.616	0.275	0.267		0.458	0.838	0.926	0.852	0.656
NCI-H1915	0.261	0.253	0.257	0.257	1.12	1.05	0.928	1.11	0.708	0.639	0.521	0.637	0.392	0.361	0.355	0.301	1.04	0.904	0.83	0.88
NCI-H1975	0.374	0.41	0.361	0.336	1.18	0.955	0.929	0.727	0.757	0.682	0.522	0.625	0.455	0.38	0.4	0.329	0.454	0.371	0.297	0.353
NCI-H1993	0.579	0.654	0.571	0.499		0.616	0.641	0.706	0.824	0.776	0.653	0.643	0.473	0.481	0.527	0.566		0.915	1.17	1.27
NCI-H2085	0.504	0.565	0.564	0.591	0.932	0.858	0.973	0.946	0.994	1.06	0.965	1.03	0.722	0.72	0.633	0.75	1.08	1.04	1.03	0.958
NCI-H2087	0.269	0.249	0.284	0.275	1.06	0.909	1.11	0.969	1.42	1.23	1.38	1.1	0.457	0.495	0.437	0.418	1.1	0.774	0.768	0.736
NCI-H2126	0.558	0.547	0.53	0.61	0.708	0.799	0.779	0.799	1.05	1.07	0.968	1.01	0.576	0.529	0.483	0.522	1.19	1.18	1.19	1.12
NCI-H2347	0.591	0.622	0.576	0.668	0.98	1	0.907	0.97	0.726	0.779	0.723	0.733	0.399	0.45	0.53	0.434	1.08	0.91	0.944	1.17
NCI-H2405	0.744	0.744	0.691	0.756	0.909	0.922	0.792	0.878	0.727	0.665	0.645	0.704	0.384	0.351	0.416	0.411	0.986	0.946	0.966	0.96
